One data set relates to HIF-1α. Kind of data set: HIF-1α accumulation under real hypoxia (1% oxygen), western blotting and immunostaining. The settings on record: 24 h. It counts as cell-based, human. Here is the method:
For immunofluorescence observation, Hep3B cells were seeded on microplates at 2 or 5 × 10^4 cells/mL and cultured for 18 h. […] The medium in the microplate wells was then removed and cells were fixed with 3.7% formaldehyde in PBS for 15 min then permeabilized for 5 min with 100% cold MeOH. Cells were washed with PBS containing 1% bovine serum albumin (PBS-1% BSA), and then treated with 5% bovine serum albumin for 20 min. The cells in each well were treated with HIF-1α antibody in PBS-0.1% BSA then placed in a humidified atmosphere of 5% CO2 at 37 °C and incubated for 60 min. After being washed with PBS-0.1% BSA, treated wells of HIF-1α were incubated with Alexa Fluor 488-conjugated mouse anti-IgG antibody in PBS-0.1% BSA then incubated at room temperature for 60 min. After being washed with PBS-0.1% BSA, the dish wells were overlaid with Hoechst 33342 for 5 min at room temperature and then washed with PBS-0.1% BSA. Fluorescence was photographed with an inverted ECLIPSE Ti-U microscope (Nikon Corporation, Japan).

For data set [1], the target named is T1, full-length hnRNPA2B1 (1–353 aa) (Homo sapiens, UniProt P22626).
T1 construct: 1–353 aa; His; made in house; host or cells: bacteria (pET28A vector)
Kind of data set: BLItz association-dissociation binding assay, full-length hnRNPA2B1. The settings on record: 6XHis tagged protein, Con. 5 uM, biotin-MO-460 on streptavidin tip. How it is done: (§1) The binding capacity of hnRNPA2B1 to Biotin-MO-460 was also analyzed using a BLItz™ (Fortebio, Inc., CA, US) instrument with a streptavidin-coated biosensor tip (Pall, USA). The streptavidin-coated tips were pre-wetted for 10 min in an incubation buffer (10 mM HEPES pH 7.4, 1% BSA and 0.05% Tween 20). The streptavidin-coated tips were immobilized with 1 μM Biotin-MO-460 in incubation buffer (10 mM HEPES pH 7.4, 1% BSA and 0.05% Tween 20) for 5 min. […] The concentrations were then incubated with HEPES for another 3 min to desorb the protein. Analysis of the accurate and precise kinetic constants was performed by the BLItz data analysis software (BLItz Pro 1.1).

For the next data set, the target named is T2, hnRNPA2B1 RRM (1–193 aa) (Homo sapiens, UniProt P22626).
T2 construct: 1–193 aa; His; made in house; host or cells: bacteria (pET28A vector)
The data set can be described thus: BLItz association-dissociation binding assay, RRM of hnRNPA2B1. The note with it: 6XHis tagged protein, biotin-MO-460 on streptavidin tip. Here is the method: as §1

Data set [2] addresses T3, hnRNPA2B1 GRD (202–353 aa) (Homo sapiens, UniProt P22626).
T3 construct: 202–353 aa; His; made in house; host or cells: bacteria (pET28A vector)
The data set can be described thus: BLItz association-dissociation binding assay, GRD of hnRNPA2B1. The settings on record: 6XHis tagged protein, Con. 5 uM, biotin-MO-460 on streptavidin tip. How it is done: as §1

Data set [3] deals with T4, hnRNPA2B1 domain-based constructs fused to GFP (Homo sapiens, UniProt P22626).
T4 construct: expressed in transfected cells
Kind of data set: Pull-down assay with GFP-fused domain constructs of hnRNPA2B1. The format is binding.

Data set [4] relates to hnRNPA2B1 domain-based constructs fused to GFP. The data set is described as above. It counts as binding, human. The settings on record: GFP-fused N-terminal RNA recognition motifs.

From article PMC6372683, “Mechanism of the natural product moracin-O derived MO-460 and its targeting protein hnRNPA2B1 on HIF-1α inhibition” (Experimental & Molecular Medicine, 2019) come the findings set out here.

T1 sequence (P22626 whole entry, the tested form may be a part): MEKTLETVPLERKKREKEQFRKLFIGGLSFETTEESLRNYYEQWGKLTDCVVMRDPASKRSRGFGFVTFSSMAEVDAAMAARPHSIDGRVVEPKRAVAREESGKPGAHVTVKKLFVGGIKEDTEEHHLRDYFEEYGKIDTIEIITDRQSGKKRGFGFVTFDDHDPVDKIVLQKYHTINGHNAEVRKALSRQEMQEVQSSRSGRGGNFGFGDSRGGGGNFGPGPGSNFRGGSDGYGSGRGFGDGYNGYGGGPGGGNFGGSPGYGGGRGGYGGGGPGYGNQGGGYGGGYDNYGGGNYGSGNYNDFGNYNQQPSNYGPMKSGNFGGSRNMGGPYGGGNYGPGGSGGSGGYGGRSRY
T3 sequence (P22626 202-353): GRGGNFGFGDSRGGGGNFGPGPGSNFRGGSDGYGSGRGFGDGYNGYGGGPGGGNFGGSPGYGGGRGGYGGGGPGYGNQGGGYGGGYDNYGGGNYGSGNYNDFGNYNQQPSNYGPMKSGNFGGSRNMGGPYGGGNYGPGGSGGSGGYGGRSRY
T2 sequence (P22626 1-193): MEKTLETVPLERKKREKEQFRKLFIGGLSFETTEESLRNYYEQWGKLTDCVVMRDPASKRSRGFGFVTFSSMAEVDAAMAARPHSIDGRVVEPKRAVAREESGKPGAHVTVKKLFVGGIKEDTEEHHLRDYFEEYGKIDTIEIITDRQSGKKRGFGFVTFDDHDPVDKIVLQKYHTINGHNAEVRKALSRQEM

With `CC(C)(O)[C@H]1Cc2cc3cc(-c4cc(O)cc(O)c4)oc3cc2O1` [(R)-(-)-moracin O, (R)-(-)-moracin-O, reference compound], the HIF-1α accumulation result in the data set on HIF-1α is listed as “reduction in HIF-1α accumulation”.

As usually defined, the Kd is the free concentration of one partner at which half of the binding sites on the other are occupied at equilibrium, for simple one-to-one binding. Lower therefore signals tighter binding. In general, melting point refers to the temperature, or range, at which the solid turns liquid. Regarding `CC(C)(O)[C@H]1Cc2cc3cc(-c4ccc(OCC(=O)NCCOCCOCCNC(=O)CCCC[C@@H]5SC[C@@H]6NC(=O)N[C@@H]65)cc4)oc3cc2O1` [biotin-MO-460, (R)-5-(2-Oxo-hexahydro-thieno[3,4-d]-imidazol-4-yl)-pentanoic acid-(2-{2-[2-(2-{4-[6-(1-hydroxy-1-methyl-ethyl)-5,6-dihydro-benzo[1,2-b;5,4-b']difuran-2-yl]-phenoxy}-acetyl-amino)-ethoxy]-ethoxy}-ethyl)-amide], the melting point was 165.1 to 168.2 °C (dec.). In addition, in data set [1], the affinity, expressed as Kd, was 11.4 µM. The Kd entry at hnRNPA2B1 RRM (1–193 aa) was “no specific interactions”. For the same molecule, the Kd in data set [2] was determined as 6.6 µM. Besides, the “binding of C-terminal glycine-rich domain (GRD) in pull-down” value in data set [3] (GFP-fused GRD) is reported as “strongly bound”. In data set [3] (GFP-fused full-length hnRNPA2B1), the “binding of full-length hnRNPA2B1 in pull-down” value is given as “strongly bound”. In data set [4], the “binding of RRM1, RRM2 and RRM1-RRM2 in pull-down” value was “did not bind”.
